# Like-named read-outs stand apart in the source and are kept apart here. Numbered stars: 1 amine (or outer) side, 2 acyl side, 3 side chain; on linkers, the order of the positions; unused ones are H or OH. Bridge positions count the residues as written; N and C are the ends. Square brackets hold non-standard residues; d marks the D form. Peptide text beside a SMILES is read from it. Pro(trans-4-Ph) = O=C(O)[C@@H]1C[C@@H](c2ccccc2)CN1; Pro(4R-Bn) = O=C(O)[C@@H]1C[C@@H](Cc2ccccc2)CN1; TBMB = c1c(C[*:1])cc(C[*:3])cc1C[*:2]; Tic = O=C(O)[C@@H]1Cc2ccccc2CN1; Pen = CC(C)(S)[C@H](N)C(=O)O; Aze = O=C(O)[C@@H]1CCN1; Abu = CC[C@H](N)C(=O)O; Aib = CC(C)(N)C(=O)O; βAla = NCCC(=O)O
# Assays:
# [1] = Plasma stability profiling method 1 (35% plasma, MALDI-TOF, qualitative); type: in vitro ADME, rat; conditions: for Observable in rat plasma, for days: 35% rat plasma, 37 deg C, method 1, comparative estimate; for rat plasma stability: method 1
# In short: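 Peptide at 200 uM incubated at 37 deg C in 35% rat or human citrated plasma with 1×PBS, sampled at 0, 3, 24 h then daily up to 10 days. Parent mass tracked by MALDI-TOF at similar laser intensity; value is time until parent no longer detectable, qualitative only.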
# human plasma Kallikrein = molecular target: T1, human plasma Kallikrein (Homo sapiens, UniProt P03952); assay: Functional enzyme inhibition assay, fluorogenic substrate Z-PheArg-AMC; type: biochemical
# T1 construct: purchased Stratech, UK
# T1 sequence (P03952 20-638): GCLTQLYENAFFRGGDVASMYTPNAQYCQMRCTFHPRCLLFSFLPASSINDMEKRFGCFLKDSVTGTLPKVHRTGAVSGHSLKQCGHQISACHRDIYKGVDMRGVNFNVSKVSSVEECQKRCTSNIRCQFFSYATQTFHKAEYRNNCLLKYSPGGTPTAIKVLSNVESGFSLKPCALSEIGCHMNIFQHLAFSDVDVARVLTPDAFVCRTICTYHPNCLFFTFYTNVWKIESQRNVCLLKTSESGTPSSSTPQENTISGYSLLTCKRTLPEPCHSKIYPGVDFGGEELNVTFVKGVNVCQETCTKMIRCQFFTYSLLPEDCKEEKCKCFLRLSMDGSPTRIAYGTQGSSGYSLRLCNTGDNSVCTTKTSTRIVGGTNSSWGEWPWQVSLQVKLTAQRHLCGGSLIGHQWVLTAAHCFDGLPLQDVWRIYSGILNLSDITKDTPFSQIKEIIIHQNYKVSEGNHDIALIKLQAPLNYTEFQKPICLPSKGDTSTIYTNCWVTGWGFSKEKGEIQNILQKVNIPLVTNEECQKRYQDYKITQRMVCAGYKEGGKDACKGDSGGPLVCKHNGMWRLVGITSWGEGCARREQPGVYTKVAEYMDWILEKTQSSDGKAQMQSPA
# Protocol: Peptides were dissolved as the TFA-salts in their powder form, and stock solutions were usually prepared in water. All solutions were centrifuged and filtered ([…] syringe filters) prior absorption measurement at 280 nm. […] For peptides containing non-natural amino acids with suspected chromophoric properties (i.e. NorHar, 4PhenylPro, 3PaI, 4PaI, Tic, 4GuanPhe, 4,4-BPAI, 3,3-DPA, 1NAI, 2NAI, 4BenzylPro, Ind) concentrations were determined by weighing the powder and dissolving the peptide in a defined quantity of water.
# [2] = Ki (nM) (human kallikrein), Ac-06-34-18(TMB)-NH2 series
SMILES,"Observable in rat plasma, for days [1] [days]",Ki (human plasma Kallikrein; [2]) [nM],other results
CC[C@@H]1NC(=O)[C@@H]2CCCN2C(=O)[C@H](Cc2c[nH]c3ccccc23)NC(=O)[C@H](CO)NC(=O)[C@@H](NC(C)=O)CSCc2cc3cc(c2)CSC[C@H](NC(=O)[C@H](CCCNC(=N)N)NC1=O)C(=O)N[C@@H](CC(C)C)C(=O)N[C@@H](Cc1c[nH]cn1)C(=O)N[C@@H](CCC(N)=O)C(=O)N[C@@H](CC(=O)O)C(=O)N[C@@H](CC(C)C)C(=O)N[C@H](C(N)=O)CSC3 [Ac-(06-34-18) Aba4] (Ac-CSWP[Abu]RCLHQDLC-NH2; linker 1-7-13 via TBMB),2,0.07,–
CC(=O)N[C@H]1CSCc2cc3cc(c2)CSC[C@H](NC(=O)[C@H](CCCNC(=N)N)NC(=O)[C@H](C)NC(=O)[C@@H]2C[C@@H](Cc4ccccc4)CN2C(=O)[C@H](Cc2c[nH]c4ccccc24)NC(=O)[C@H](CO)NC1=O)C(=O)N[C@@H](CC(C)C)C(=O)N[C@@H](Cc1c[nH]cn1)C(=O)N[C@@H](CCC(N)=O)C(=O)N[C@@H](CC(=O)O)C(=O)N[C@@H](CC(C)C)C(=O)N[C@H](C(N)=O)CSC3 [Ac-(06-34-18) 4Benzyl Pro3] (Ac-CSW[Pro(4R-Bn)]ARCLHQDLC-NH2; linker 1-7-13 via TBMB),2,191,–
CC(=O)N[C@H]1CSCc2cc3cc(c2)CSC[C@H](NC(=O)[C@H](CCCNC(=N)N)NC(=O)[C@H](C)NC(=O)[C@@H]2C[C@@H](c4ccccc4)CN2C(=O)[C@H](Cc2c[nH]c4ccccc24)NC(=O)[C@H](CO)NC1=O)C(=O)N[C@@H](CC(C)C)C(=O)N[C@@H](Cc1c[nH]cn1)C(=O)N[C@@H](CCC(N)=O)C(=O)N[C@@H](CC(=O)O)C(=O)N[C@@H](CC(C)C)C(=O)N[C@H](C(N)=O)CSC3 [Ac-(06-34-18) 4Phenyl Pro3] (Ac-CSW[Pro(trans-4-Ph)]ARCLHQDLC-NH2; linker 1-7-13 via TBMB),2,0.58,–
CC(=O)N[C@H]1CSCc2cc3cc(c2)CSC[C@H](NC(=O)[C@H](CCCNC(=N)N)NC(=O)[C@H](C)NC(=O)[C@@H]2CCN2C(=O)[C@H](Cc2c[nH]c4ccccc24)NC(=O)[C@H](CO)NC1=O)C(=O)N[C@@H](CC(C)C)C(=O)N[C@@H](Cc1c[nH]cn1)C(=O)N[C@@H](CCC(N)=O)C(=O)N[C@@H](CC(=O)O)C(=O)N[C@@H](CC(C)C)C(=O)N[C@H](C(N)=O)CSC3 [Ac-(06-34-18) Aze3] (Ac-CSW[Aze]ARCLHQDLC-NH2; linker 1-7-13 via TBMB),2,–,affinity surpassing that of wildtype by a factor (human plasma Kallikrein; vs Ac-06-34-18(TMB)-NH2): 3
CC(=O)N[C@H]1CSCc2cc3cc(c2)CSC[C@H](NC(=O)[C@H](CCCNC(=N)N)NC(=O)[C@H](C)NC(=O)[C@@H]2Cc4ccccc4CN2C(=O)[C@H](Cc2c[nH]c4ccccc24)NC(=O)[C@H](CO)NC1=O)C(=O)N[C@@H](CC(C)C)C(=O)N[C@@H](Cc1c[nH]cn1)C(=O)N[C@@H](CCC(N)=O)C(=O)N[C@@H](CC(=O)O)C(=O)N[C@@H](CC(C)C)C(=O)N[C@H](C(N)=O)CSC3 [Ac-(06-34-18) Tic3] (Ac-CSW[Tic]ARCLHQDLC-NH2; linker 1-7-13 via TBMB),2,13.5,–
CC(=O)N[C@H]1CSCc2cc3cc(c2)CSC[C@H](NC(=O)[C@H](CCCNC(=N)N)NC(=O)[C@H](Cc2ccc(O)cc2)NC(=O)[C@@H]2CCCN2C(=O)[C@H](Cc2c[nH]c4ccccc24)NC(=O)[C@H](CO)NC1=O)C(=O)N[C@@H](CC(C)C)C(=O)N[C@@H](Cc1c[nH]cn1)C(=O)N[C@@H](CCC(N)=O)C(=O)N[C@@H](CC(=O)O)C(=O)N[C@@H](CC(C)C)C(=O)N[C@H](C(N)=O)CSC3 [Ac-(06-34-18) WPYR] (Ac-CSWPYRCLHQDLC-NH2; linker 1-7-13 via TBMB),2,0.41,–
CC(=O)N[C@H]1CSCc2cc3cc(c2)CSC[C@H](NC(=O)[C@H](CCCNC(=N)N)NC(=O)CCNC(=O)[C@@H]2CCCN2C(=O)[C@H](Cc2c[nH]c4ccccc24)NC(=O)[C@H](CO)NC1=O)C(=O)N[C@@H](CC(C)C)C(=O)N[C@@H](Cc1c[nH]cn1)C(=O)N[C@@H](CCC(N)=O)C(=O)N[C@@H](CC(=O)O)C(=O)N[C@@H](CC(C)C)C(=O)N[C@H](C(N)=O)CSC3 [Ac-(06-34-18) β-Ala4] (Ac-CSWP[βAla]RCLHQDLC-NH2; linker 1-7-13 via TBMB),10,–,"Ki (human plasma Kallikrein; text b279, read-out: affinity to Kallikrein): ~20000 nM"
CC(=O)N[C@H]1CSCc2cc3cc(c2)CSC[C@H](NC(=O)[C@H](CCCNC(=N)N)NC(=O)[C@H](C)NC(=O)[C@@H]2CCCN2C(=O)[C@H](Cc2ccccc2)NC(=O)[C@H](CO)NC1=O)C(=O)N[C@@H](CC(C)C)C(=O)N[C@@H](Cc1c[nH]cn1)C(=O)N[C@@H](CCC(N)=O)C(=O)N[C@@H](CC(=O)O)C(=O)N[C@@H](CC(C)C)C(=O)N[C@H](C(N)=O)CSC3 [Ac-(06-34-18) FPAR] (Ac-CSFPARCLHQDLC-NH2; linker 1-7-13 via TBMB),2,–,loss in potency / reduction in affinity compared to wildtype (human plasma Kallikrein; vs Ac-06-34-18(TMB)-NH2): 40 fold
CC(=O)N[C@H]1CSCc2cc3cc(c2)CSC[C@H](NC(=O)[C@H](CCCNC(=N)N)NC(=O)[C@H](C)NC(=O)C(C)(C)NC(=O)[C@H](Cc2c[nH]c4ccccc24)NC(=O)[C@H](CO)NC1=O)C(=O)N[C@@H](CC(C)C)C(=O)N[C@@H](Cc1c[nH]cn1)C(=O)N[C@@H](CCC(N)=O)C(=O)N[C@@H](CC(=O)O)C(=O)N[C@@H](CC(C)C)C(=O)N[C@H](C(N)=O)CSC3 [Ac-(06-34-18) Aib3] (Ac-CSW[Aib]ARCLHQDLC-NH2; linker 1-7-13 via TBMB),2,1.2,–
CC(=O)N[C@H]1CSCc2cc3cc(c2)CSC[C@H](NC(=O)[C@H](CCCNC(=N)N)N(C)C(=O)[C@H](C)NC(=O)[C@@H]2CCCN2C(=O)[C@H](Cc2c[nH]c4ccccc24)NC(=O)[C@H](CO)NC1=O)C(=O)N[C@@H](CC(C)C)C(=O)N[C@@H](Cc1c[nH]cn1)C(=O)N[C@@H](CCC(N)=O)C(=O)N[C@@H](CC(=O)O)C(=O)N[C@@H](CC(C)C)C(=O)N[C@H](C(N)=O)CSC3 [Ac-(06-34-18) NMeArg5],–,–,rat plasma stability [1]: exceeds the assay time; loss in potency / reduction in affinity compared to wildtype (human plasma Kallikrein; vs Ac-06-34-18(TMB)-NH2): 20 fold
CC(=O)N[C@H]1CSCc2cc3cc(c2)CSC[C@H](NC(=O)[C@H](CCCNC(=N)N)NC(=O)C(C)(C)NC(=O)[C@@H]2CCCN2C(=O)[C@H](Cc2c[nH]c4ccccc24)NC(=O)[C@H](CO)NC1=O)C(=O)N[C@@H](CC(C)C)C(=O)N[C@@H](Cc1c[nH]cn1)C(=O)N[C@@H](CCC(N)=O)C(=O)N[C@@H](CC(=O)O)C(=O)N[C@@H](CC(C)C)C(=O)N[C@H](C(N)=O)CSC3 [Ac-(06-34-18) Aib4] (Ac-CSWP[Aib]RCLHQDLC-NH2; linker 1-7-13 via TBMB),7,289,–
CC(=O)N[C@H]1CSCc2cc3cc(c2)CSC(C)(C)[C@H](NC(=O)[C@H](CCCNC(=N)N)NC(=O)[C@H](C)NC(=O)[C@@H]2CCCN2C(=O)[C@H](Cc2c[nH]c4ccccc24)NC(=O)[C@H](CO)NC1=O)C(=O)N[C@@H](CC(C)C)C(=O)N[C@@H](Cc1c[nH]cn1)C(=O)N[C@@H](CCC(N)=O)C(=O)N[C@@H](CC(=O)O)C(=O)N[C@@H](CC(C)C)C(=O)N[C@H](C(N)=O)CSC3 [Ac-(06-34-18) Cys2ToPen2] (Ac-CSWPAR[Pen]LHQDLC-NH2; linker 1-7-13 via TBMB),5,–,rat plasma stability [1]: slightly enhanced; potency against human plasma Kallikrein compared to parent (human plasma Kallikrein): potency dropped significantly

# Source: patent publication US11912794B2, “Modulation of structured polypeptide specificity” (BicycleRD Limited, priority 2011, dated 2024)
